Some test systems named below: NCI-H522 lung; K-562 leukemia; DU-145 prostate; OVCAR-3 ovarian; KM12 colon; OVCAR-4 ovarian; A549 NSCLC; SNB-75 CNS; LOX IMVI melanoma; SK-MEL-2 melanoma.
What all share (test): inhibition of tumour cell growth, NCI panel, 48 h

Among the data in PubChem BioAssay (NCI) are TGI values, retold here.

Each structure is given as a SMILES string.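 All cell lines were grown in 96-well plates and treated with compound for 48 hours. TGI: total growth inhibition.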 Bounds are passed on as bounds.

For `CCc1c(O)cc(=O)oc1-c1ccc(OC)c(OC)c1`, the TGI in the experiment on NCI-H522 lung, with K-562 leukemia, in the experiment with DU-145 prostate, with OVCAR-3 ovarian, in the experiment on KM12 colon and in the experiment with OVCAR-4 ovarian was > 100 µM throughout. In addition, the TGI in the experiment on A549 NSCLC, in the experiment on SNB-75 CNS, in the experiment with LOX IMVI melanoma and in the experiment with SK-MEL-2 melanoma was > 100 µM in each case.
Take `CCCCCCN(CCCCCC)C(=S)N/N=C(\C)c1ccccn1`: the TGI in the experiment on NCI-H522 lung is 2.7 µM; with K-562 leukemia, 4.64 µM; in the experiment with DU-145 prostate it was 2.59 µM; in the experiment with OVCAR-3 ovarian it was 2.83 µM; in the experiment with KM12 colon it was 2.73 µM; in the experiment on OVCAR-4 ovarian, 3.16 µM. The TGI in the experiment with A549 NSCLC stood at 3.66 µM; in the experiment with SNB-75 CNS it was 3.68 µM; in the experiment with LOX IMVI melanoma, 2.59 µM; with SK-MEL-2 melanoma it was 3.02 µM.
For the compound `CC(=O)O[C@@H](c1nccn1Cc1ccccc1)[C@H]1OC(C)(C)O[C@@H]1[C@H]1COC(C)(C)O1`, the TGI in the experiment with NCI-H522 lung, in the experiment with K-562 leukemia, with DU-145 prostate, in the experiment on OVCAR-3 ovarian, in the experiment on KM12 colon and in the experiment on OVCAR-4 ovarian was > 100 µM throughout. Also, the TGI with A549 NSCLC, in the experiment on SNB-75 CNS, in the experiment with LOX IMVI melanoma and in the experiment with SK-MEL-2 melanoma was > 100 µM in each case.
Regarding `COc1ccc(C)cc1N1C(=O)C2ON(Cc3ccc(CC(N)=O)cc3)C(c3c4ccccc4c(Cl)c4ccccc34)C2C1=O` (centres undefined), the TGI is > 100 µM in the experiment with NCI-H522 lung; > 100 µM with K-562 leukemia; 86.5 µM in the experiment on DU-145 prostate; > 100 µM in the experiment with OVCAR-3 ovarian; 29.1 µM with KM12 colon; 84.6 µM in the experiment with OVCAR-4 ovarian. For the same compound, the TGI with A549 NSCLC was > 100 µM; in the experiment on SNB-75 CNS it was 38.9 µM; with LOX IMVI melanoma, 54.7 µM; with SK-MEL-2 melanoma it was 44.5 µM.
`Cc1ccccc1-c1nc2c(N)nc(N)nc2nc1N`: the TGI with NCI-H522 lung, in the experiment on K-562 leukemia, in the experiment on DU-145 prostate, in the experiment with OVCAR-3 ovarian, in the experiment with KM12 colon and in the experiment on OVCAR-4 ovarian was > 100 µM in each case. In addition, the TGI in the experiment with A549 NSCLC, in the experiment on SNB-75 CNS, in the experiment with LOX IMVI melanoma and with SK-MEL-2 melanoma was > 100 µM each time.
Take `O=C(COc1ccc(OCC(=O)N/N=C/c2ccc(-c3ccc(Cl)cc3Cl)o2)c(Cl)c1)N/N=C/c1ccc(-c2ccc(Cl)cc2Cl)o1`: the TGI in the experiment with NCI-H522 lung was > 100 µM; in the experiment with K-562 leukemia, 50.2 µM; with DU-145 prostate, > 100 µM; in the experiment with OVCAR-3 ovarian it was > 100 µM; in the experiment on KM12 colon, > 100 µM; with OVCAR-4 ovarian, > 100 µM. The TGI in the experiment on A549 NSCLC, in the experiment on LOX IMVI melanoma and in the experiment on SK-MEL-2 melanoma was > 100 µM in each case.
`O=C(CCc1cc(O)cc(O)c1)NCCc1cc(OCc2ccccc2)cc(OCc2ccccc2)c1`: the TGI in the experiment with NCI-H522 lung is 28.2 µM; with K-562 leukemia, 29.7 µM; in the experiment with DU-145 prostate it was 33.5 µM; with OVCAR-3 ovarian it was 52.2 µM; in the experiment with KM12 colon, 28.1 µM; with A549 NSCLC it was 23.6 µM. Besides, the TGI with SNB-75 CNS turned out to be 24.5 µM; in the experiment with LOX IMVI melanoma it was 32 µM; with SK-MEL-2 melanoma it was 28.2 µM.
For `COc1ccc2nc(NC(=O)/C(C#N)=C/c3ccccc3)sc2c1`, the TGI is 65.4 µM in the experiment on NCI-H522 lung; > 95.2 µM in the experiment with K-562 leukemia; > 100 µM with DU-145 prostate; > 100 µM in the experiment with OVCAR-3 ovarian; > 73.3 µM in the experiment on KM12 colon; > 100 µM in the experiment on OVCAR-4 ovarian. Moreover, the TGI is > 100 µM in the experiment with A549 NSCLC, > 87.8 µM in the experiment on SNB-75 CNS, > 100 µM in the experiment on LOX IMVI melanoma and > 100 µM in the experiment with SK-MEL-2 melanoma.
Regarding `CC1CC(N2CCOCC2)=Nc2ccccc2N1C` (centres undefined), the TGI in the experiment on NCI-H522 lung, with K-562 leukemia, in the experiment on DU-145 prostate, with OVCAR-3 ovarian, with KM12 colon and in the experiment on OVCAR-4 ovarian was > 100 µM each time. In addition, the results for the TGI in the experiment with A549 NSCLC, with SNB-75 CNS and in the experiment with SK-MEL-2 melanoma were > 100 µM, 89.7 µM and > 100 µM, respectively.
`Cc1nc(N)c(N2CCN(C#N)CC2)c(=O)[nH]1`: the TGI in the experiment with NCI-H522 lung, in the experiment with K-562 leukemia, in the experiment with DU-145 prostate, in the experiment on OVCAR-3 ovarian, in the experiment on KM12 colon and in the experiment on A549 NSCLC was > 100 µM each time. The TGI in the experiment with SNB-75 CNS, with LOX IMVI melanoma and in the experiment on SK-MEL-2 melanoma was > 100 µM each time.
Take `COC1OC(C)C(NC(=O)OCC(Cl)(Cl)Cl)C2OC(C)(C)OC12` (centres undefined): the TGI in the experiment on NCI-H522 lung, with K-562 leukemia, in the experiment on DU-145 prostate, with OVCAR-3 ovarian, in the experiment with KM12 colon and in the experiment with OVCAR-4 ovarian was > 100 µM each time. Besides, the TGI in the experiment with A549 NSCLC is > 100 µM.
With `COC(=O)[C@]1(C)CCC[C@@]2(C)C1CC[C@]13C=C(C(C)C)[C@H](CC21)CC3(Cl)C#N` (some centres undefined), the TGI in the experiment on NCI-H522 lung, in the experiment with K-562 leukemia, with DU-145 prostate, with OVCAR-3 ovarian, in the experiment on KM12 colon and with OVCAR-4 ovarian was > 100 µM each time. Further, the TGI with A549 NSCLC and with SNB-75 CNS was > 100 µM throughout.
For the compound `Cc1ccc2c(c1C)C(=O)C1(Cc3cc4c(cc3C1=O)CCC4)C2` (centres undefined), the TGI in the experiment with NCI-H522 lung, with K-562 leukemia, in the experiment with DU-145 prostate, with OVCAR-3 ovarian, in the experiment on KM12 colon and in the experiment with OVCAR-4 ovarian was > 100 µM each time. Moreover, the TGI in the experiment with A549 NSCLC, in the experiment on SNB-75 CNS and in the experiment on SK-MEL-2 melanoma was > 100 µM in each case.
In the case of `CN(C)CCn1c(=O)c2ccc(NCCCN(C)CCCNc3ccc4c(=O)n(CCN(C)C)c(=O)n5c6ccc(O)cc6c(=O)c3c45)c3c(=O)c4cc(O)ccc4n(c1=O)c23`, the TGI is 0.0802 µM in the experiment on NCI-H522 lung; 0.255 µM in the experiment with K-562 leukemia; 0.655 µM in the experiment on DU-145 prostate; 0.553 µM with KM12 colon; 0.177 µM in the experiment on OVCAR-4 ovarian; 0.786 µM in the experiment with A549 NSCLC. The TGI in the experiment on SNB-75 CNS is 0.0627 µM; in the experiment on LOX IMVI melanoma, 0.0619 µM; in the experiment with SK-MEL-2 melanoma, 0.275 µM.
